Broadly, the IC50 is the concentration that inhibits the measured activity by half.

Calls of active or inactive are those of the source. The calls are words filed in the database; no cut-off is given here.

The nature of series [1]: Solubility of the compound in 20% DMSO. The format is physicochemical.
A further series concerns Leishmania donovani. The series is described as follows: Antileishmanial activity against Leishmania donovani MHOM/80/IN/Dd8 promastigotes infected in THP-1 cells assessed as measured after 48 hrs by MTT assay. The format is functional, organism-based.
Series [2] is described as follows: Selectivity index, ratio of IC50 for differentiated human THP-1 cells to IC50 for Leishmania donovani MHOM/80/IN/Dd8 promastigotes. The format is toxicity. The conditions noted are these: differentiated THP-1 cells, read-out: Ratio IC50.
In a further series the test system is THP-1. The experiment in a line: Cytotoxicity against differentiated human THP-1 cells measured after 48 hrs by MTT assay. In kind it is cell-based. The conditions noted are these: THP-1, 48 h.
Series [3] can be described thus: Inhibition of IKK in human HeLa S3 cells using biotinylated IkaapaB-alpha by ELISA phosphorylation assay. The format is cell-based. (An ELISA detects its analyte on a solid surface through an enzyme-linked reagent.)
In series [4] the test system is MCF7. The series is described as follows: Induction of apoptosis in human MCF7 cells at 10 uM measured after 6 hrs by Annexin V/Propidium iodide staining based confocal microscopy. The format is functional, cell-based.
The next series relates to HeLa. The series is described as follows: Cytotoxicity against human HeLa cells assessed as reduction in cell viability at 10 uM measured after 24 hrs by MTT assay relative to control. In kind it is functional, cell-based.
In a further series the test system is L132. The experiment in a line: Cytotoxicity against human L-132 cells assessed as reduction in cell viability at 10 uM measured after 24 hrs by MTT assay relative to control. In kind it is cell-based. The conditions noted are these: L132, 24 h. (Tetrazolium assays rely on reduction of a dye to a coloured formazan, in cell work by metabolically active cells.)

For series [5], the system named is A549. The series is described as follows: Cytotoxicity against human A-549 cells assessed as reduction in cell viability at 10 uM measured after 24 hrs by MTT assay relative to control. The format is functional, cell-based. The following applies: A549, 24 h.
In the next series the test system is HepG2. The experiment in a line: Cytotoxicity against human HepG2 cells assessed as reduction in cell viability at 10 uM measured after 24 hrs by MTT assay relative to control. In kind it is functional, cell-based. The conditions noted are these: HepG2, 24 h.
In series [6] the test system is A549. The series is described as follows: Induction of apoptosis in human A549 cells at 10 uM measured after 6 hrs by Annexin V/Propidium iodide staining based confocal microscopy. The format is functional, cell-based.
Series [7] relates to MCF7. The series is described as follows: Cytotoxicity against human MCF-7 cells assessed as reduction in cell viability at 10 uM measured after 24 hrs by MTT assay relative to control. In kind it is functional, cell-based. The conditions noted are these: MCF7, 24 h.
The nature of series [8]: Inhibition of IKK (unknown origin). Further details: species or system Homo sapiens.
Where [9] appears, read: Leishmania donovani, MHOM/80/IN/Dd8, THP-1, 48 h, read-out: IC50.

Turning to `COC(=O)c1cc2c([nH]c3ccc(NC(=O)c4ccc5ccccc5c4)cc32)c(C)n1`, the solubility result in [1] is “Insoluble”. In addition, the IC50 result in the series on Leishmania donovani was “Nd(Insoluble)”.
On to `CCCCCCCCCCCCCCCCOP(=O)([O-])OCC[N+](C)(C)C` [MILTEFOSINE], for which the selectivity ratio in [2] stood at 2.64. Moreover, the IC50 in the series with THP-1 came out at 31.5 µM; with Leishmania donovani (setting [9]), 11.9 µM.
In the case of `Clc1cc2c([nH]c3cnccc32)c(Cl)c1OCC1CC1`, it took 0.08 µM to reach half-maximal inhibition in [3] (IC50).
With `CCCCCCCCCCCC(=O)Nc1ccc2[nH]c3c(C)nc(C(=O)OC)cc3c2c1`, the solubility entry in [1] is “Insoluble”. In addition, the IC50 result in the series on Leishmania donovani is recorded as “Nd(Insoluble)”.
`COC(=O)c1cc2c([nH]c3ccc(NC(=O)c4cc(C)oc4C)cc32)c(C)n1`: the IC50 in the series with Leishmania donovani (setting [9]) is > 100 µM.
In the case of `COC(=O)c1cc2c([nH]c3ccc(NC(=O)c4ccc(C(C)(C)C)cc4)cc32)c(C)n1`, the result with MCF7 [4] and with A549 [6] was Active. Moreover, the IC50 with HeLa was determined as 3.59 µM; in the series with L132, 3.26 µM; in the series on THP-1, 32 µM; in the series on A549 [5], 4.72 µM; in the series with HepG2, 3.65 µM; in the series with Leishmania donovani (setting [9]), 68 µM. Besides, the 50% inhibitory concentration (IC50) in the series on MCF7 [7] was 4.17 µM. Further, in [2], the selectivity ratio turned out to be 0.47.
In the case of `COCC(=O)Nc1ccc2[nH]c3c(C)nc(C(=O)OC)cc3c2c1`, the IC50 in the series with Leishmania donovani (setting [9]) was > 100 µM.
Consider `COC(=O)c1cc2c([nH]c3ccc(NC(=O)c4ccc(C)cc4)cc32)c(C)n1`, for which the solubility entry in [1] is on record as “Insoluble”. Moreover, the IC50 entry in the series on Leishmania donovani is given as “Nd(Insoluble)”.
As for `CCCCC(=O)Nc1ccc2[nH]c3c(C)nc(C(=O)OC)cc3c2c1`, in the series on Leishmania donovani (setting [9]), the half-inhibitory concentration (IC50) was > 100 µM.
`COC(=O)c1cc2c([nH]c3ccc(NC(=O)c4ccc(C(F)(F)F)cc4)cc32)c(C)n1`: the solubility entry in [1] was “Insoluble”. The half-inhibitory concentration (IC50) result with Leishmania donovani is on record as “Nd(Insoluble)”.
On to `COc1ccc2[nH]c3cnccc3c2c1Br`, for which, in series [8], half-maximal inhibition (IC50) was put at 1 µM.
Consider `COC(=O)c1cc2c([nH]c3ccc([N+](=O)[O-])cc32)c(C)n1`, for which the IC50 in the series on Leishmania donovani (setting [9]) was > 100 µM.
Still for that read-out and setting: with `COC(=O)c1cc2c([nH]c3ccc(NC(C)=O)cc32)c(C)n1` the figure was > 100 µM.
Still for that read-out and setting: the value for `COC(=O)c1cc2c([nH]c3ccc(NC(=O)c4ccco4)cc32)c(C)n1` was > 100 µM.
On to `COC(=O)c1cc2c([nH]c3ccc(NC(=O)C4CCCCC4)cc32)c(C)n1`, for which, in [2], the selectivity ratio turned out to be 3.27. The half-inhibitory concentration (IC50) with THP-1 worked out at 77 µM; with Leishmania donovani (setting [9]), 23.5 µM.
Take `COC(=O)c1cc2c([nH]c3ccc(NC(=O)c4ccc(Br)cc4)cc32)c(C)n1`: the solubility result in [1] is listed as “Insoluble”. Moreover, the IC50 entry in the series on Leishmania donovani is reported as “Nd(Insoluble)”.
Take `COC(=O)c1cc2c([nH]c3ccc(NC(=O)c4ccccc4C(F)(F)F)cc32)c(C)n1`: the 50% inhibitory concentration (IC50) with Leishmania donovani (setting [9]) is > 100 µM.
Same read-out and setting: with `COC(=O)c1cc2c([nH]c3ccc(NC(=O)c4ccccc4)cc32)c(C)n1` the figure was > 100 µM.
Take `COC(=O)c1cc2c([nH]c3ccc(NC(=O)Oc4ccc([N+](=O)[O-])cc4)cc32)c(C)n1`: the solubility entry in series [1] was “Insoluble”. The half-inhibitory concentration (IC50) result with Leishmania donovani is reported as “Nd(Insoluble)”.
In the case of `COC(=O)c1cc2c([nH]c3ccc(NC(=O)c4cc(C(F)(F)F)cc(C(F)(F)F)c4)cc32)c(C)n1`, the outcome with MCF7 [4] and in the series on A549 [6] was Active. The IC50 in the series on HeLa was 5.3 µM; with L132, 11.2 µM; with A549 [5], 15.5 µM; in the series with HepG2 it was 6.15 µM; with Leishmania donovani, “Nd(Insoluble)”; in the series on MCF7 [7], 13.4 µM. Further, in [1], the solubility entry is “Insoluble”.
Consider `COC(=O)c1cc2c([nH]c3ccc(N)cc32)c(C)n1`, for which the IC50 with Leishmania donovani (setting [9]) was > 100 µM.
Consider `COC(=O)c1cc2c([nH]c3ccc(NC(=O)c4cccs4)cc32)c(C)n1`, for which, in the series with Leishmania donovani (setting [9]), the IC50 is > 100 µM.
Take `COC(=O)c1cc2c([nH]c3ccc(NC(=O)c4cc(OC)c(OC)c(OC)c4)cc32)c(C)n1`: the IC50 in the series with Leishmania donovani (setting [9]) was determined as 100 µM.
For the compound `COC(=O)c1cc2c([nH]c3ccc(NC(=O)/C=C/c4ccccc4)cc32)c(C)n1`, the solubility result in series [1] is recorded as “Insoluble”. The IC50 entry in the series on Leishmania donovani is reported as “Nd(Insoluble)”.
For `COC(=O)c1cc2c([nH]c3ccc(NC(=O)c4ccc(OC)cc4)cc32)c(C)n1` the same measures were “Insoluble” and “Nd(Insoluble)”.
For `COC(=O)c1cc2c([nH]c3ccc(NC(=O)COc4ccccc4)cc32)c(C)n1` the same measures were “Insoluble” and “Nd(Insoluble)”.
On to `COC(=O)c1cc2c([nH]c3ccccc32)c(C)n1`, for which the half-inhibitory concentration (IC50) in the series on HeLa is 35.6 µM; in the series on L132, 39.3 µM; with THP-1, > 100 µM; in the series with A549 [5], 37.8 µM; in the series with HepG2 it was 39.6 µM; in the series on Leishmania donovani (setting [9]), 9 µM. Also, the 50% inhibitory concentration (IC50) with MCF7 [7] is 45 µM. The selectivity ratio in [2] was > 11.1.
Take `CC(=O)O[C@@]12CO[C@@H]1C[C@H](O)[C@@]1(C)C(=O)[C@H](O)C3=C(C)[C@@H](OC(=O)[C@H](O)[C@@H](NC(=O)OC(C)(C)C)c4ccccc4)C[C@@](O)([C@@H](OC(=O)c4ccccc4)[C@H]21)C3(C)C` [DOCETAXEL ANHYDROUS]: the IC50 in the series with HeLa worked out at 3.23 µM; in the series on L132, 1.68 µM; in the series with A549 [5] it was 3.41 µM; with HepG2 it was 2.86 µM; in the series on MCF7 [7] it was 3.6 µM.

(Values after ChEMBL document CHEMBL4715699, “Design, synthesis and biological evaluation of 1,3,6-trisubstituted β-carboline derivatives for cytotoxic and anti-leishmanial potential” (Bioorg Med Chem Lett, 2016).)
